Consider six molecules from US8158596B2, “Materials and methods for FOXP3 tumor suppression” (The Regents of the University of Michigan, priority 2007, dated 2012).

One data set relates to FOXP3 gene. The experiment in a line: FOXP3 gene induction in prostate cancer cell lines by methyltransferase inhibitor. Format: cell-based, human. As to conditions: prostate cancer cell lines PC3 and Du145. Here is the method:
Using a quantitative pyrosequencing method for FOXP3 analysis, the level of methylation in both the intronic CpG motif and the CpG island was quantitated in the promoter region of FOXP3, using DNA from 17 cases of micro-dissected normal and cancerous tissues. […] Morover, the increase in methylation strongly correlate with reduction of FOXP3 expression. To verify the significance of DNA methylation, prostate cancer cell lines PC3 and Du145 were treated with a methyltransferase inhibitor (5-aza-2′-deoxycytidine (5-AZA)).

The target in another data set is T1, p38 (Mus musculus, UniProt P47811).
T1 construct: Western blots of the cell lysates were obtained using antibodies specific for phospho-ATF2, phospho-p38; endogenous in cells; host or cells: 4T1 mouse mammary tumor cells
T1 sequence (P47811 whole entry): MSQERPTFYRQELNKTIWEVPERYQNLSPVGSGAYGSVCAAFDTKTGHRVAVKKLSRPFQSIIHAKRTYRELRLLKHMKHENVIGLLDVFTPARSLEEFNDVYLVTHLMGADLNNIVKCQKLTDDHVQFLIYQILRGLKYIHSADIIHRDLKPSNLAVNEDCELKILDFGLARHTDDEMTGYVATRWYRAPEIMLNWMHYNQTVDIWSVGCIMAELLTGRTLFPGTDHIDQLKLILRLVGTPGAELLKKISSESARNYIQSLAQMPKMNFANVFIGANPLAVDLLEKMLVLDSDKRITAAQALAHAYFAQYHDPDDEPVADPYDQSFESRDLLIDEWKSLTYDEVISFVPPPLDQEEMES
Format: cell-based. As to conditions: 4T1 cells; anisomycin 1 μg/ml, PMA 0.5 μg/ml. Here is the method:
4T1 cells were treated with either vehicle control, anisomycin (1 μg/ml) or PMA (0.5 μg/ml). Western blots of the cell lysates were obtained using antibodies specific for phospho-ATF2, phospho-p38, ATF2, phospho-JNK1/2, phospho-c-Jun. Levels of beta-actin were used as loading controls.
Cells of a mammary tumor cell line were treated with anisomycin in conjunction with inhibitors of overlapping specificity. […] Western blots of the cell lysates were obtained using antibodies specific for phosphor-ATF2, phospho-p38, ATF2, phospho-JNK1/2, phospho-c-Jun. Levels of beta-actin were used as loading controls.

A further data set concerns ATF2. The experiment in a line: Western blot of phospho-ATF2 in 4T1 cells. As to conditions: for activation of ATF2: anisomycin 1 μg/ml, PMA 0.5 μg/ml. Format: cell-based, mouse. The procedure:
(§1) To identify the mechanism by which anisomycin induced FoxP3, the activation of ATF2, p38, and JNK upon treatment with either anisomycin or PMA was compared. 4T1 cells were treated with either vehicle control, anisomycin (1 μg/ml) or PMA (0.5 μg/ml). Western blots of the cell lysates were obtained using antibodies specific for phospho-ATF2, phospho-p38, ATF2, phospho-JNK1/2, phospho-c-Jun. Levels of beta-actin were used as loading controls.
(§2) Cells of a mammary tumor cell line were treated with anisomycin in conjunction with inhibitors of overlapping specificity. Specifically, 4T1 cells were treated with vehicle control, anisomycin (1 μg/ml) or PMA (0.5 μg/ml) in the presence or absence of inhibitors (2 μg/ml): SP10096 (SP), SB203580 (SB), and PD9786 (PD). Western blots of the cell lysates were obtained using antibodies specific for phosphor-ATF2, phospho-p38, ATF2, phospho-JNK1/2, phospho-c-Jun. Levels of beta-actin were used as loading controls.
(§3) In order to study the mechanism of ATF2/c-Jun-mediated induction of FoxP3, chromatin immunoprecipitation (ChIP) was carried out as described in (Im et al., Nat Med 5: 412-417 (1999)) to identify an anisomycin-inducible binding site of the FoxP3 locus. Briefly, 4TI cells were treated with vehicle or anisomycin for 2 hours. The cells were sonicated and the chromatin was fixed with 1% paraformaldehyde. Anti-phospho-c-Jun or anti-phosphor-ATF2 antibodies or control rabbit IgG were used to precipitate chromatin associated with these proteins. The amounts of the specific DNA fragments were quantitated by real-time PCR and normalized against the genomic DNA preparation from the same cells. […] Untreated 4T1 cells barely had detectable amounts of phospho-ATF2 and phospho-c-Jun in the nuclei.

A further data set has as its system JNK. The experiment in a line: Western blot of phospho-JNK1/2 in 4T1 cells. Format: cell-based, mouse. As to conditions: for activation of JNK: anisomycin 1 μg/ml, PMA 0.5 μg/ml. The procedure: as §1, §2
(In general: A western blot detects proteins with antibodies after separation by electrophoresis.)

In the next data set the test system is c-Jun. The experiment in a line: Western blot of phospho-c-Jun in 4T1 cells. The format is cell-based, mouse. As to conditions: for activation of c-Jun: anisomycin 1 μg/ml, PMA 0.5 μg/ml. The procedure: as §1, §2, §3
Data set [1] deals with FoxP3. The experiment in a line: Anisomycin-induced FoxP3 induction in 4T1 cells with kinase inhibitors. The format is cell-based, mouse. As to conditions: inhibitor 2 μg/ml with anisomycin 1 μg/ml.
Another data set has as its system FOXP3-encoding mRNA. The experiment in a line: Induction of FOXP3-encoding mRNA in cancer cell lines (RT-PCR). The format is cell-based. As to conditions: thymoma BW5147, thymic epithelial cell 61.7, breast cancer TSA, treated 14 hr to 2 days. Here is the method:
A method was developed to induce FOXP3 expression in cancer cells by activating JNK, P38 and ATF2. Briefly, breast cancer and thymoma cell lines were treated with activators of JNK, P38 and ATF2, such a emetine and anisomycin for 14 hr to 2 days. The cells were analyzed for expression of FOXP3-encoding mRNA by RT-PCR.

The test system of data set [2] is breast cancer cell lines MCF-7, BT474, TSA. As to the kind of experiment: Killing of breast cancer cell lines / MTT viability assay. The format is cell-based, human, mouse. The procedure:
Given the impact of FOXP3 activity on tumor growth and cell death, these compounds were also tested for their ability to kill cancer cells. […] The IC50 ranges between 30-100 ng/ml.
To determine whether anisomycin treatment causes apoptosis of breast cancer cells, the cytotoxic effect of anisomycin on several of breast cancer cell lines was measured by MTT assay. 10^4 cells/well of mouse cell line (TSA) or human breast cancer cell lines (TB474 or MCF7) were cultured in the presence of 25, 50, 100, 200, 400, or 800 ng/ml anisomycin for 48 hours. The amounts of viable cells were determined by MTT assay, with viability of the untreated cells defined as 100%. Both mouse (TSA) and human breast cancer cell lines (BT474, MCF-7) were highly susceptible to anisomycin, with an IC50 between 50-100 […].
For orientation: Tetrazolium assays rely on reduction of a dye to a coloured formazan, in cell work by metabolically active cells.

Another data set relates to TSA cells. As to the kind of experiment: Apoptosis: activated caspase 3 staining and DNA content. The format is cell-based, mouse. The text has this:
Cells were stained for activated Capsase 3 and also tested for DNA contents. The % of gated cells was apoptotic based on their sub-2C DNA contents.

The test system of another data set is FOXP3 transcripts. As to the kind of experiment: FOXP3 transcripts in primary mammary epithelial cultures of ATF2+/+ and ATF2-/- mice. The format is cell-based, mouse. Here is the method: ATF2± mice were obtained from the frozen embryo bank of the Jackson Laboratories and were crossed to produce ATF2+/+ and the ATF2−/− mice. […] Two independent primary cultures were obtained from two ATF2−/− females. Specifically, mouse mammary fat pads were removed from 6 to 8-week-old virgin female mice and minced into small pieces. After collagenase digestion at 37° C. in a shaking incubator in DMEM medium supplemented with 5% fetal calf serum (FBS), cells were sieved through a 70-μm cell strainer (BD Falcon) to obtain a single cell suspension. The cells were cultured in DMEM medium supplemented with 10% FBS and 10 ng/ml epithelial growth factor (EGF). At day 3 of culture, fibroblast cells were removed by a short digestion with 0.05% trypsin-EDTA as less adherent cells.
The primary cultures were then assayed for expressioin of FOXP3 protein by Western blotting cell lysates of the cultures with antibodies specific for FOXP3. The primary transcripts also were assayed for expression of FOXP3 by real-time PCR.

The test system of data set [3] is FoxP3 locus P2 and P10 sites. The experiment in a line: ChIP of phospho-ATF2/phospho-c-Jun binding at the FoxP3 locus in 4T1 cells. The format is cell-based, mouse. Here is the method: as §3
In order to identify the FoxP3 sequence associated with p-ATF2 and p-c-Jun, the 5′ sequence of the FoxP3 gene was analyzed and 14 potential AP1 and CREB sites were identified. […]

Data set [4] concerns P10 probe (AP1 site of FoxP3 enhancer). The experiment in a line: Electrophoretic mobility shift of P10 AP1 probe with 4T1 nuclear extracts. As to conditions: nuclear extracts of anisomycin-treated 4T1 cells. Format: cell-based, mouse. The text has this:
Sequencing comparison identified a typical AP1 site within the P10. […] The sequence of nonmutated probe (P10) is […] (bold letters for core AP1 sequence; SEQ ID NO: 173), that for P10-Mt1 is […] (bold letter indicate mutations; SEQ ID NO: 174), while that for P10-Mt2 is […] (SEQ ID NO: 175).

The next data set concerns TSA tumor cells. The experiment in a line: TSA tumor in mammary fat pads of BALb/c mice. The format is in vivo. As to conditions: intraperitoneal, every 3 days for 8 times, I mg/mouse. Here is the method:
To test whether induction of FoxP3 by ATF2-FoxP3 pathway can be explored for breast cancer therapy, cells (5×10^5) of the TSA cell line were injected into the mammary fat pads of BALb/c mice. Five days later, when the cancer cells established locally, the mice were intraperitoneally treated with vehicle control or anisomycin every 3 days for 8 times at a dose of I mg/mouse.

Data set [5] deals with FOXP3. The experiment in a line: FOXP3 silencing in HPEC: FOXP3 mRNA. The format is cell-based, human. As to conditions: one week after infection. The procedure:
(§4) To determine whether the endogenous FOXP3 in prostate epithelial cell lines is responsible for MYC repression, the FOXP3 locus was silenced with a lentiviral vector encoding shRNA for FOXP3. Human Prostate Epithelial Cells (HPEC) were purchased from Lonza Group Ltd (Switzerland) and were cultured with medium. An early passage of the HPEC were infected with lentivirus expressing either control shRNA or FOXP3 shRNA vector as described in Zuo et al., 2007, supra. Uninfected cells were removed by drug selection. At one week after infection, the levels of FOXP3 or MYC mRNA were quantitated by RT-PCR. Western blotting was also carried out using anti-FOXP3 or -MYC antibodies. Beta actin was used as a loading control.

The subject of another data set is MYC. The experiment in a line: FOXP3 silencing in HPEC: MYC transcript. The format is cell-based, human. As to conditions: one week after infection. Here is the method: as §4
Where [6] appears, read: inhibitor 2 μg/ml with anisomycin 1 μg/ml.

`Nc1ncn([C@H]2C[C@H](O)[C@@H](CO)O2)c(=O)n1` [5-AZA, 5-aza-2′-deoxycytidine]: the “induction of the FOXP3 gene” value in the data set on FOXP3 gene is “two-fold”.

For `CCCCCCCCCCCCCC(=O)O[C@@H]1[C@@H](C)[C@@]2(O)[C@@H](C=C(CO)C[C@]3(O)C(=O)C(C)=C[C@@H]23)[C@@H]2C(C)(C)[C@]12OC(C)=O` [PMA], the “activation of p38” value at p38 is on record as “activated”. The “activation of ATF2” value in the data set with ATF2 is given as “activated”. Besides, the “activation of JNK” value with JNK was “failed to activate”. The “activation of c-Jun” value in the data set with c-Jun is on record as “failed to activate”.

`C[S+]([O-])c1ccc(-c2nc(-c3ccncc3)c(-c3ccc(F)cc3)[nH]2)cc1` (stereo not shown) [SB]: the “inhibition of ATF2 activation by anisomycin” value in the data set with ATF2 (setting [6]) was “only partially”. The “inhibition of JNK activation by anisomycin” value in the data set on JNK (setting [6]) is on record as “only partially”. For the same molecule, the “inhibition of anisomycin-induced FoxP3 induction” value in the data set with FoxP3 [1] is on record as “reduced, but did not eliminate”.

For `COc1ccc(C[C@H]2NC[C@H](O)[C@H]2OC(C)=O)cc1` [anisomycin], the “induction of FOXP3-encoding mRNA” value in the data set on FOXP3-encoding mRNA was “strong induction”. The “IC50 (cancer cell killing)” value in data set [2] (48 hours) lay within 0.03 to 0.1 µg/mL. The “killing of cancer cells” value in [2] (within 48 hours) is “killed a substantial percentage of cancer cells”. The “active caspase 3 in cells with less than 2C DNA contents” value in the data set with TSA cells is given as “increased expression of active caspase 3”. For the same molecule, the “activation of p38” value at p38 was “activated”. For the same molecule, the “activation of ATF2” value with ATF2 is on record as “activated”. For the same molecule, the “phospho-ATF2 in the nuclear fraction” value in the data set with ATF2 (anisomycin 2 hours) is listed as “major increase”. Moreover, the “activation of JNK” value with JNK is “activation”. Also, the “activation of c-Jun” value in the data set with c-Jun was “activation”. For the same molecule, the “phospho-c-Jun in the nuclear fraction” value with c-Jun (anisomycin 2 hours) is “major increase”. For the same molecule, the “FOXP3 transcripts in ATF2+/+ epithelial cultures” value with FOXP3 transcripts (ATF2+/+ primary mammary epithelial cells) is “further induced”. Besides, the “FoxP3 transcripts in ATF2-/- cells” value with FOXP3 transcripts (ATF2-/- primary mammary epithelial cells) is reported as “completely refractory”. In data set [3] (P2, 4.8 kb 5′ of exon 1), the “inducibility of ATF2/cJun association with P2 site (ChIP)” value is “not inducible”. Besides, in data set [3] (P10, 4.2 kb 3′ of exon 1), the “enhancement of ATF2/cJun binding to P10 site (ChIP)” value is “more than 2 fold”. In data set [4], the “binding of nuclear extracts to nonmutated P10 probe (EMSA)” value was “strong interaction”. The side effects entry with TSA tumor cells is given as “did not give obvious side effects”. Further, the “growth of TSA tumor cells in syngeneic mammary pad” value in the data set on TSA tumor cells (from day 5) is “nearly completely abrogated”.

Consider `CC[C@H]1CN2CCc3cc(OC)c(OC)cc3[C@@H]2C[C@@H]1C[C@H]1NCCc2cc(OC)c(OC)cc21` [emetine], for which the “induction of FOXP3-encoding mRNA” value in the data set on FOXP3-encoding mRNA is “strong induction”.

In the case of “FoxP3 shRNA: lentiviral shRNA specific for FoxP3 used in mouse TSA cells (SEQ ID NO: 168) (AAGCCATGGCAATAGTTCCTT)”, in the data set on FOXP3 [5], the “expression of FOXP3 mRNA” value is given as “major reduction”. Moreover, in the data set on MYC, the “level of MYC transcript” value is given as “significantly elevated”.
